According to the supplement of paper PMC11451515:

Test system: SEM cells
Experiment: cell viability relative to DMSO control; higher = less cytotoxic
Conditions: 48 h
Outline: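 NOMO1 or SEM cells were plated at 500 cells/well and P12-Ichikawa cells at 1000 cells/well in 1536-well plates (5 μl), after each leukemia line had been adapted for at least four passages in each medium. Pin dosing delivered library compounds in DMSO at 11 threefold concentrations, 47 μM to 0.79 nM. CellTiter-Glo One luminescence was read after 48 h at 37°C. Viability is reported as a per-plate percentage of DMSO wells, with cell-free wells as background.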

[1] = HPLM + 10% dialyzed FBS, 0.000781 µM
[2] = HPLM + 10% dialyzed FBS, 0.00234 µM
[3] = HPLM + 10% dialyzed FBS, 0.00702 µM
[4] = HPLM + 10% dialyzed FBS, 0.0211 µM
[5] = HPLM + 10% dialyzed FBS, 0.0632 µM
[6] = HPLM + 10% dialyzed FBS, 0.19 µM
[7] = HPLM + 10% dialyzed FBS, 0.569 µM
[8] = HPLM + 10% dialyzed FBS, 1.71 µM
[9] = HPLM + 10% dialyzed FBS, 5.12 µM
[10] = HPLM + 10% dialyzed FBS, 15.4 µM
[11] = HPLM + 10% dialyzed FBS, 46.1 µM
[12] = RPMI 5 mM glucose + 10% FBS, 0.000781 µM
[13] = RPMI 5 mM glucose + 10% FBS, 0.00234 µM
[14] = RPMI 5 mM glucose + 10% FBS, 0.00702 µM
[15] = RPMI 5 mM glucose + 10% FBS, 0.0211 µM
[16] = RPMI 5 mM glucose + 10% FBS, 0.0632 µM
[17] = RPMI 5 mM glucose + 10% FBS, 0.19 µM
[18] = RPMI 5 mM glucose + 10% FBS, 0.569 µM
[19] = RPMI 5 mM glucose + 10% FBS, 1.71 µM
[20] = RPMI 5 mM glucose + 10% FBS, 5.12 µM
[21] = RPMI 5 mM glucose + 10% FBS, 15.4 µM
[22] = RPMI 5 mM glucose + 10% FBS, 46.1 µM
[23] = RPMI 5 mM glucose + 10% dialyzed FBS, 0.000781 µM
[24] = RPMI 5 mM glucose + 10% dialyzed FBS, 0.00234 µM
[25] = RPMI 5 mM glucose + 10% dialyzed FBS, 0.00702 µM
[26] = RPMI 5 mM glucose + 10% dialyzed FBS, 0.0211 µM
[27] = RPMI 5 mM glucose + 10% dialyzed FBS, 0.0632 µM
[28] = RPMI 5 mM glucose + 10% dialyzed FBS, 0.19 µM
[29] = RPMI 5 mM glucose + 10% dialyzed FBS, 0.569 µM
[30] = RPMI 5 mM glucose + 10% dialyzed FBS, 1.71 µM
[31] = RPMI 5 mM glucose + 10% dialyzed FBS, 5.12 µM
[32] = RPMI 5 mM glucose + 10% dialyzed FBS, 15.4 µM
[33] = RPMI 5 mM glucose + 10% dialyzed FBS, 46.1 µM

In the case of `CO[C@H]1C[C@@H]2CC[C@@H](C)[C@@](O)(O2)C(=O)C(=O)N2CCCC[C@H]2C(=O)O[C@H]([C@H](C)C[C@@H]2CC[C@@H](OC(=O)C(C)(CO)CO)[C@H](OC)C2)CC(=O)[C@H](C)/C=C(\C)[C@@H](O)[C@@H](OC)C(=O)[C@H](C)C[C@H](C)/C=C/C=C/C=C/1C`, the cell viability [1] is reported as 80.2%, the cell viability [2] is reported as 93.3% and the cell viability [3] is reported as 88%. It also gave a cell viability [4] of 77.7%, a cell viability [5] of 76.5% and a cell viability [6] of 74.5%. The cell viability [7] was 64.7%, the cell viability [8] was 55.4% and the cell viability [9] was 57.7%. The cell viability [10] was 49.1%, the cell viability [11] was 41.6% and the cell viability [12] was 71.2%. For the same molecule, the cell viability [13] was 78.2%, the cell viability [14] was 70.1% and the cell viability [15] was 61.6%. For the same molecule, the cell viability [16] was 60.5%, the cell viability [17] was 56.3% and the cell viability [18] was 57.7%. It also gave a cell viability [19] of 52.4%, a cell viability [20] of 50.5% and a cell viability [21] of 27.3%. It also gave a cell viability [22] of 15.7%, a cell viability [23] of 87.4% and a cell viability [24] of 97.1%. The cell viability [25] was 91.2%, the cell viability [26] was 73.1% and the cell viability [27] was 84.6%. For the same molecule, the cell viability [28] was 83.1%, the cell viability [29] was 64.4% and the cell viability [30] was 61.8%. The cell viability [31] was 67.4%, the cell viability [32] was 58.4% and the cell viability [33] was 23.2%.
Molecule `C=CC1=C(C(=O)O)N2C(=O)[C@@H](NC(=O)/C(=N\O)c3csc(N)n3)[C@H]2SC1` has a cell viability [1] of 80.6%, a cell viability [2] of 81.9% and a cell viability [3] of 20.4%. It also gave a cell viability [4] of 86.1%, a cell viability [5] of 87.3% and a cell viability [6] of 98.9%. For the same molecule, the cell viability [7] was 89.8%, the cell viability [8] was 91.1% and the cell viability [9] was 83.1%. It also gave a cell viability [10] of 93.4%, a cell viability [11] of 95.7% and a cell viability [12] of 87.5%. It also gave a cell viability [13] of 107%, a cell viability [14] of 10.3% and a cell viability [15] of 104%. It also gave a cell viability [16] of 96.7%, a cell viability [17] of 109% and a cell viability [18] of 102%. It also gave a cell viability [19] of 108%, a cell viability [20] of 121% and a cell viability [21] of 98.7%. It also gave a cell viability [22] of 106%, a cell viability [23] of 83.1% and a cell viability [24] of 86.6%. The cell viability [25] was 27.4%, the cell viability [26] was 108% and the cell viability [27] was 94.5%. For the same molecule, the cell viability [28] was 107%, the cell viability [29] was 97.1% and the cell viability [30] was 101%. The cell viability [31] was 116%, the cell viability [32] was 112% and the cell viability [33] was 101%.
In the case of `O=C(NC[C@H](O)CN1CCc2ccccc2C1)c1cc(NC2COC2)ncn1`, the cell viability [1] is reported as 58.8%, the cell viability [2] is reported as 84.9% and the cell viability [3] is reported as 91.5%. It also gave a cell viability [4] of 81.6%, a cell viability [5] of 86.3% and a cell viability [6] of 75%. For the same molecule, the cell viability [7] was 68.5%, the cell viability [8] was 71.6% and the cell viability [9] was 78.4%. The cell viability [10] was 68.6%, the cell viability [11] was 26.9% and the cell viability [12] was 71.9%. The cell viability [13] was 145%, the cell viability [14] was 124% and the cell viability [15] was 141%. For the same molecule, the cell viability [16] was 132%, the cell viability [17] was 121% and the cell viability [18] was 108%. For the same molecule, the cell viability [19] was 108%, the cell viability [20] was 114% and the cell viability [21] was 88.5%. For the same molecule, the cell viability [22] was 47.2%, the cell viability [23] was 59% and the cell viability [24] was 107%. It also gave a cell viability [25] of 100%, a cell viability [26] of 91.1% and a cell viability [27] of 73.8%. It also gave a cell viability [28] of 81%, a cell viability [29] of 80.5% and a cell viability [30] of 75.2%. It also gave a cell viability [31] of 84.2%, a cell viability [32] of 65.1% and a cell viability [33] of 25.2%.
For `COC[C@@H](NC(C)=O)C(=O)NCc1ccccc1`, the cell viability [1] was 117%, the cell viability [2] was 116% and the cell viability [3] was 118%. For the same molecule, the cell viability [4] was 118%, the cell viability [5] was 112% and the cell viability [6] was 119%. It also gave a cell viability [7] of 124%, a cell viability [8] of 105% and a cell viability [9] of 100%. It also gave a cell viability [10] of 120%, a cell viability [11] of 111% and a cell viability [12] of 115%. For the same molecule, the cell viability [13] was 111%, the cell viability [14] was 118% and the cell viability [15] was 123%. For the same molecule, the cell viability [16] was 99.7%, the cell viability [17] was 115% and the cell viability [18] was 99.9%. The cell viability [19] was 121%, the cell viability [20] was 90.3% and the cell viability [21] was 103%. The cell viability [22] was 116%, the cell viability [23] was 103% and the cell viability [24] was 101%. For the same molecule, the cell viability [25] was 102%, the cell viability [26] was 96.7% and the cell viability [27] was 99.4%. It also gave a cell viability [28] of 131%, a cell viability [29] of 106% and a cell viability [30] of 105%. It also gave a cell viability [31] of 90%, a cell viability [32] of 86.7% and a cell viability [33] of 96.9%.
`ClC1=CC(=CC=C1)N2CCN(CCCN3\N=C4\C=C/C=C\N4C3=O)CC2` gave a cell viability [1] of 79.3%, a cell viability [2] of 107% and a cell viability [3] of 107%. The cell viability [4] was 112%, the cell viability [5] was 121% and the cell viability [6] was 130%. The cell viability [7] was 127%, the cell viability [8] was 131% and the cell viability [9] was 140%. The cell viability [10] was 131%, the cell viability [11] was 145% and the cell viability [12] was 117%. For the same molecule, the cell viability [13] was 126%, the cell viability [14] was 123% and the cell viability [15] was 138%. For the same molecule, the cell viability [16] was 140%, the cell viability [17] was 138% and the cell viability [18] was 146%. It also gave a cell viability [19] of 157%, a cell viability [20] of 150% and a cell viability [21] of 165%. It also gave a cell viability [22] of 127%.
`Cc1ncc(OC[C@@]2(c3cccc(F)c3)C[C@H]2C(=O)Nc2ccc(F)cn2)c(C)n1` was tested, and the cell viability [1] was 75.3%, the cell viability [2] was 84.5% and the cell viability [3] was 97.6%. The cell viability [4] was 96%, the cell viability [5] was 95.3% and the cell viability [6] was 91.7%. It also gave a cell viability [7] of 105%, a cell viability [8] of 96% and a cell viability [9] of 98.3%. It also gave a cell viability [10] of 98.7%, a cell viability [11] of 78.3% and a cell viability [12] of 113%. It also gave a cell viability [13] of 111%, a cell viability [14] of 102% and a cell viability [15] of 104%. The cell viability [16] was 103%, the cell viability [17] was 133% and the cell viability [18] was 136%. The cell viability [19] was 51.1%, the cell viability [20] was 97.3% and the cell viability [21] was 88.4%. The cell viability [22] was 104%, the cell viability [23] was 85.3% and the cell viability [24] was 107%. The cell viability [25] was 98.1%, the cell viability [26] was 90.8% and the cell viability [27] was 100%. It also gave a cell viability [28] of 104%, a cell viability [29] of 108% and a cell viability [30] of 118%. For the same molecule, the cell viability [31] was 122%, the cell viability [32] was 108% and the cell viability [33] was 82.6%.
`CN(C/C=C/C#CC(C)(C)C)Cc1cccc2ccccc12` was tested, and the cell viability [1] was 81.5%, the cell viability [2] was 84.7% and the cell viability [3] was 93%. For the same molecule, the cell viability [4] was 92.4%, the cell viability [5] was 96.3% and the cell viability [6] was 101%. It also gave a cell viability [7] of 114%, a cell viability [8] of 94% and a cell viability [9] of 107%. The cell viability [10] was 100%, the cell viability [11] was 98.3% and the cell viability [12] was 72.2%. It also gave a cell viability [13] of 99.6%, a cell viability [14] of 86.7% and a cell viability [15] of 94.2%. It also gave a cell viability [16] of 93.3%, a cell viability [17] of 101% and a cell viability [18] of 105%. The cell viability [19] was 105%, the cell viability [20] was 95% and the cell viability [21] was 76.5%. The cell viability [22] was 99.4%, the cell viability [23] was 81% and the cell viability [24] was 90.4%. The cell viability [25] was 85.9%, the cell viability [26] was 98.9% and the cell viability [27] was 110%. It also gave a cell viability [28] of 95.6%, a cell viability [29] of 96.6% and a cell viability [30] of 104%. For the same molecule, the cell viability [31] was 117%, the cell viability [32] was 104% and the cell viability [33] was 95%.
